{"source": "patent US20080145412A1", "about": "“METHOD OF PROMOTING ANGIOGENESIS” (Acologix, Inc., priority 2006, published 2008)", "key": {"FGF2 [1]": {"test_system": "FGF2", "experiment": "Angiogenesis antibody array (TranSignal Mouse Angiogenesis Antibody Array) of lysates from AC-100 treated calvariae", "assay_type": "cell-based", "settings": "calvaria lysates", "description": "To investigate whether AC-100 modulates bone anabolic factors that are sequestered within the bone matrix we have analysed lysates from AC-100 treated calvariae.\nInitial experiments analysed the lysates using an angiogenesis antibody array (TranSignal Mouse Angiogenesis Antibody Array, Panomics)."}, "FGF-2": {"test_system": "FGF-2", "experiment": "FGF-2 production in mouse calvaria organ cultures (FIG. 1)", "assay_type": "cell-based", "settings": "tissue lysates and conditioned media", "protocol": "AC-100 at both 1 and 10 uM concentrations increased the production of FGF-2 in mouse calvaria organ cultures. Increases were found in both tissue lysates and in the conditioned media of cultures treated with AC-100."}, "FGF2 [2]": {"test_system": "FGF2", "experiment": "ELISA timecourse of FGF2 in calvaria organ culture lysates and conditioned media (FIG. 2A)", "assay_type": "cell-based, mouse", "protocol": "(§1) To quantitatively measure the increase in FGF2 in AC-100 treated bones, lysates were harvested over a comprehensive timecourse (30 min, 1 hr, 2 hr, 6 hr, 24 hr, 48 hr, 72 hr, day 4, day 5) and analysed for FGF2 and other bone anabolic factors using ELISA. […] Consistent with our previous findings AC-100 increased PGE2 in the conditioned media and TGFbeta and Fibronectin in both the conditioned media and bone lysate.\n(§2) In addition, this response roughly correlated with expression of PGE-2 following AC-100 treatment (2B), TGF-β (2C) and Fibronectin (2D). Increases in PGE2 in the same cultures were observed from […]."}, "PGE2": {"test_system": "PGE2", "experiment": "PGE2 in murine calvarial organ culture (FIG. 2B)", "assay_type": "cell-based, mouse", "protocol": "(§3) We have previously reported AC-100 treatment increases PGE2, TGFbeta and Fibronectin levels in the conditioned media from the murine calvarial organ culture. Histological evaluation of the bones indicated AC-100 increased the amount of new bone formation and numbers of osteoblasts.\nas §1, §2"}, "TGFbeta": {"test_system": "TGFbeta", "experiment": "TGFbeta in murine calvarial organ culture (FIG. 2C)", "assay_type": "cell-based, mouse", "protocol": "as §3, §1, §2"}, "Fibronectin": {"test_system": "Fibronectin", "experiment": "Fibronectin in murine calvarial organ culture (FIG. 2D)", "assay_type": "cell-based, mouse", "protocol": "as §3, §1, §2"}, "[3]": {"test_system": "murine calvarial organ culture", "experiment": "Histological evaluation of bones from murine calvarial organ culture", "assay_type": "cell-based, mouse", "settings": "histological evaluation of the bones", "description": "as §3"}, "BMP2 [4]": {"test_system": "BMP2", "experiment": "Synergy with BMP2 in vitro", "assay_type": "cell-based", "settings": "combination with BMP2, in vitro", "description": "(§4) BMP2, a potent osteogenic agent is also a strong stimulator of angiognenesis."}, "BMP2 [5]": {"test_system": "BMP2", "experiment": "Synergy with BMP2 in vivo, ossicle formation", "description": "as §4"}, "bone healing": {"test_system": "bone healing", "experiment": "Bone healing in diverse animal models", "assay_type": "in vivo", "description": "Angiogenesis is a crucial part of bone healing."}, "[6]": {"settings": "conditioned media, murine calvarial organ culture, previously reported"}}}
{"sequence": "TDLQERGDNDISPFSGDGQPFKD [AC-100]", "values": [{"measurement": "FGF2 signal at 2 hr", "setting": "FGF2 [1]; 2 hr", "result": "increased"}, {"measurement": "FGF2 signal 24 hr through day 3", "setting": "FGF2 [1]; 24 hr through day 3", "result": "the same as the control bones"}, {"measurement": "FGF2 signal at day 5", "setting": "FGF2 [1]; day 5, control signal significantly reduced", "result": "still strong"}, {"measurement": "FGF2 signal, overall course", "setting": "FGF2 [1]; versus control bones", "result": "earlier and prolonged increase"}, {"measurement": "production of FGF-2", "setting": "FGF-2; AC-100 1 uM", "result": "increased"}, {"measurement": "production of FGF-2", "setting": "FGF-2; AC-100 10 uM", "result": "increased"}, {"measurement": "FGF2 in conditioned media", "setting": "FGF2 [2]; ELISA, conditioned media", "result": "not detectable"}, {"measurement": "FGF2 in bone lysates", "setting": "FGF2 [2]; ELISA, lysates, 30 min through day 5", "result": "potent increase"}, {"measurement": "production of FGF-2 over time (FIG. 2A)", "setting": "FGF2 [2]; approximately 1 hr to 5 days", "result": "increased"}, {"measurement": "PGE2 in conditioned media", "setting": "PGE2; ELISA, conditioned media", "result": "increased"}, {"measurement": "PGE2 levels", "setting": "PGE2; [6]", "result": "increases"}, {"measurement": "PGE2 over time (FIG. 2B)", "setting": "PGE2; same cultures, days 2-7", "result": "Increases"}, {"measurement": "TGFbeta in bone lysate", "setting": "TGFbeta; ELISA, bone lysate", "result": "increased"}, {"measurement": "TGFbeta in conditioned media", "setting": "TGFbeta; ELISA, conditioned media", "result": "increased"}, {"measurement": "TGFbeta levels", "setting": "TGFbeta; [6]", "result": "increases"}, {"measurement": "Fibronectin in bone lysate", "setting": "Fibronectin; ELISA, bone lysate", "result": "increased"}, {"measurement": "Fibronectin in conditioned media", "setting": "Fibronectin; ELISA, conditioned media", "result": "increased"}, {"measurement": "Fibronectin levels", "setting": "Fibronectin; [6]", "result": "increases"}, {"measurement": "amount of new bone formation", "setting": "[3]", "result": "increased"}, {"measurement": "numbers of osteoblasts", "setting": "[3]", "result": "increased"}, {"measurement": "activity with BMP2 in vitro", "setting": "BMP2 [4]", "result": "synergistic activities"}, {"measurement": "osteons and blood vessels in ossicles", "setting": "BMP2 [5]; BMP2 and AC-100 co-treatment", "result": "contain mature osteons with new blood vessels"}, {"measurement": "structure of ossicles formed", "setting": "BMP2 [5]; BMP2 and AC-100 co-treatment versus BMP2 alone", "result": "more mature structure"}, {"measurement": "activity with BMP2 in vivo", "setting": "BMP2 [5]; combination with BMP2, in vivo", "result": "synergistic activities"}, {"measurement": "healing", "setting": "bone healing", "result": "earlier healing"}, {"measurement": "new bone formed", "setting": "bone healing", "result": "increased amount and better quality of new bone"}]}
